We go through 14 compounds from patent US20010056101A1 (priority 1998, published 2001).

The subject of data set [1] is hO3 Receptor (Homo sapiens). To be noted: for Intrinsic Activity: calculated from the Low/High ratio; for Ratio Low/High: ratio of affinity at low-affinity agonist state to high affinity agonist state; for Ki: read-out: Ki (nM) ± S.D.
The target in another data set is T1, hO44 Receptor (Homo sapiens, UniProt P21917).
T1 sequence (P21917 1-419): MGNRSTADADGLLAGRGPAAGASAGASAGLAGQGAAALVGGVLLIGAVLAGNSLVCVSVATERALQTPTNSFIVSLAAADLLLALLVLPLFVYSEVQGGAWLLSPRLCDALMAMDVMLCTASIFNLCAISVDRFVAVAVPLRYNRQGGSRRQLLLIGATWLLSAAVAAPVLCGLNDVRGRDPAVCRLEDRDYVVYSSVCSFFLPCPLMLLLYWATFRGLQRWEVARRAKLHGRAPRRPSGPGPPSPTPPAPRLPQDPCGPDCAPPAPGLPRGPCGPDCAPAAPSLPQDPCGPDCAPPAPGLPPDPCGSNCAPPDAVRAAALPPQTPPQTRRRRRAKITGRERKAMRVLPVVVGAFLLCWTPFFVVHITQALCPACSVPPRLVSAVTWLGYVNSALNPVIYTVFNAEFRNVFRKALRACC
The note with it: for Ki / Intrinsic Activity / Ratio Low/High: hO44 Receptor; for Ratio Low/High: ratio of affinity at low-affinity agonist state to high affinity agonist state.

For data set [2], the system named is L-DOPA-induced dyskinesia in Parkinson's disease. To be noted: cited from earlier work.
A further data set addresses T2, hD44 (Homo sapiens, UniProt P21917).
T2 sequence (P21917 1-419): T1 sequence (P21917 1-419)
Description: biochemical.

The next data set deals with hD3 (Homo sapiens). Description: Affinity and intrinsic activity, Table 4. It is filed as binding.
Sequence of hD3 (Homo sapiens) (P14416 whole entry): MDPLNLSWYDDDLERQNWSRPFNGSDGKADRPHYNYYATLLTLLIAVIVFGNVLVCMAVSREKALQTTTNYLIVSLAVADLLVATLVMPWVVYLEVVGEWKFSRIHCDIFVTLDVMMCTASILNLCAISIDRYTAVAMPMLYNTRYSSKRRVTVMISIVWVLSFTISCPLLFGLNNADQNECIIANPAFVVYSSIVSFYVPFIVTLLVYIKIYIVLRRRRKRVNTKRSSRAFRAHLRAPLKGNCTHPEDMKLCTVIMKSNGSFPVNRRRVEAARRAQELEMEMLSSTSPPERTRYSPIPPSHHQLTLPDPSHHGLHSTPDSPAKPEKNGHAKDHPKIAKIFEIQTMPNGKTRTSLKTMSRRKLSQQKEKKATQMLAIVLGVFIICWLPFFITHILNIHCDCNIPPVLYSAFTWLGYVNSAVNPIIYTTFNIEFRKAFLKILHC
In data set [3] the test system is schizophrenia. The data set is described as follows: Clinical antipsychotic efficacy, efficacy tolerance and side effects of dopamine agonists in schizophrenia. It is filed as in vivo, human.
A further data set concerns the target T3, hD42 (Homo sapiens, UniProt P21917, DEL265-296).
T3 sequence (P21917 with tags, fused parts or gaps DEL265-296): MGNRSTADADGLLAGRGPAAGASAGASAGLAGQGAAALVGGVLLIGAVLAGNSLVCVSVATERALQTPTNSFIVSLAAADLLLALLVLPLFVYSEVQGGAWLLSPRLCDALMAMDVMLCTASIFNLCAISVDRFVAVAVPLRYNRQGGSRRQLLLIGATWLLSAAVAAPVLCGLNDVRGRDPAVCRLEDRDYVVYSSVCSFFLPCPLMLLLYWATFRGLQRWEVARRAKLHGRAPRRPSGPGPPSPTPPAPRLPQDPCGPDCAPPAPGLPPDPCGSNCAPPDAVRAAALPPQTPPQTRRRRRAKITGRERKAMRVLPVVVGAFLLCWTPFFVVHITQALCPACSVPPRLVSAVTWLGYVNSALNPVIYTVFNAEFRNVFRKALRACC
The data set is described as follows: biochemical.

The subject of data set [4] is schizophrenia. The note with it: cited from earlier work.
Another data set has as its target T4, hD47 (Homo sapiens, UniProt P21917).
T4 sequence (P21917 1-419): T1 sequence (P21917 1-419)

The subject of data set [5] is actively psychotic schizophrenic persons. The data set is described as follows: Clinical test of (−)-3PPP plus haloperidol in actively psychotic schizophrenic persons, BPRS. In kind it is in vivo, human. To be noted: for Change in Total BPRS Score, mean: each arm with haloperidol 1 mg bid. The text has this:
This combination was designed to produce a lower IA (-)-3PPP, and thereby prolonging its antipsychotic activity. […] This dose of haloperidol may have delivered a measurable antipsychotic effect. […] (Table 5).

The next data set has as its target D2 receptor (Homo sapiens, UniProt P14416). The note with it: for Emax: CHO.
The subject of a further data set is tardive dyskinesia. To be noted: clinical pharmacology, in words; cited from earlier work.
The test system of data set [6] is schizophrenia. The note with it: grade symbols, key not given; cited from earlier work.
The next data set concerns the target hD21 Receptor (Homo sapiens, UniProt P14416). Description: Affinity and intrinsic activity of partial dopamine agonists, Table 3.
[7] abbreviates: calculated from the Low/High ratio.

Read-outs that look alike come from different tables or passages of the source.

Sequence of D2 receptor (P14416 whole entry): as the sequence (P14416 whole entry) above
Sequence of hO3 Receptor (Homo sapiens) (P14416 whole entry): as the sequence (P14416 whole entry) above
Sequence of hD21 Receptor (P14416 whole entry): as the sequence (P14416 whole entry) above

In general, Ki refers to a dissociation constant, usually derived from enzyme kinetics or from competition with a known ligand. As to `CCCN1CCCC(c2cccc(O)c2)C1` (single isomer, unassigned; (+)) [(+)-3-PPP], the “Intrinsic Activity” value is on record as 81% in data set [1] and 96% on hO44 Receptor (setting [7]). In addition, the Ki on hO44 Receptor (Ki (nM) ± S.D.) is 12 ± 6.5 nM.
With `CCCN(CCc1cccs1)C1CCc2c(O)cccc2C1` (single isomer, unassigned; (+)) [(+)-N-0437], the “Intrinsic Activity” value in [1] is given as 48%; on hO44 Receptor (setting [7]), 72%. Besides, the “Ratio Low/High” value in data set [1] was 10; at hO44 Receptor it was 40. The Ki in [1] was determined as 4.8 ± 2.3 nM; on hO44 Receptor (read-out: Ki (nM) ± S.D.), 7.7 ± 3.4 nM.
For `CCCN1CCCC(c2cccc(O)c2)C1` (single isomer, unassigned; (-)) [(−)-3-PPP, (−)3-(3-hydroxyphenyl)-N-n-propylpiperidine], the “Effect on L-DOPA-induced dyskinesia” value in data set [2] is recorded as “improves L-DOPA-induced dyskinesia in Parkinson's disease”. Besides, the Ki at hD44 is 13.2 nM; at hD42, 30.9 nM; at hD47 (high affinity agonist state, [3H]-agonist ligand), 14.3 nM; on hO44 Receptor (Ki (nM) ± S.D.), 12.2 ± 3.1 nM. For the same compound, the Emax is 97% on hD44 (read-out: Intrinsic Activity %); 46% in the data set on hD3 (Homo sapiens); 73% at hD42 (read-out: Intrinsic Activity %); 40% at D2 receptor (read-out: Intrinsic activity (IA), Example 2); 36% at D2 receptor (read-out: Intrinsic activity, tested without haloperidol, FIG. 1); 83% at hO44 Receptor (read-out: Intrinsic Activity, hO44 Receptor, calculated from the Low/High ratio). The Duration of efficacy result with schizophrenia [3] (antipsychotic efficacy before tolerance) is “up to 7 days”. The “Acute motor side effects” value with schizophrenia [4] (clinical application in schizophrenia) is reported as “not accompanied by any acute motor side effect”. In the data set with schizophrenia [4] (continuous dosing, agonist alone), the “Duration of antipsychotic action” value is “approximately one week”. Besides, the “Intrinsic Activity %” value on hD47 was 98%. In addition, in data set [5] ((−)-3PPP 300 mg bid plus haloperidol 1 mg bid, two weeks), the “Antipsychotic effect over the trial” value is “extended longer for the entire two week period of the trial without evidence of tolerance”. Besides, the “Change in Total BPRS Score, mean” value in data set [5] (Day 3) is given as −1.4; in [5] (Day 7), −3.4; in data set [5] (Day 11), −3.3; in data set [5] (Day 14), −4.6. In addition, the “Change of intrinsic activity with increasing concentrations of haloperidol” value on D2 receptor (varying concentrations of haloperidol, FIG. 1) is on record as “linear reduction in the intrinsic activity”. For the same compound, the “Intrinsic Activity” value in data set [1] is 46%.
Consider `CN1CCc2cccc3c2[C@@H]1Cc1ccc(O)c(O)c1-3` [(+)-Apo], for which, at hO44 Receptor (setting [7]), the “Intrinsic Activity” value is given as 55%.
On to `CCCN1CCc2cccc3c2[C@@H]1Cc1ccc(O)c(O)c1-3` [(+)-NPA], for which the “Intrinsic Activity” value is 61% in [1] and 58% at hO44 Receptor (setting [7]). Moreover, at hO44 Receptor (read-out: Ki (nM) ± S.D.), the Ki came out at 2.3 ± 2 nM.
Consider `CN1CCc2cccc3c2[C@H]1Cc1ccc(O)c(O)c1-3` [(−)-Apo], for which the “Intrinsic Activity” value on hO44 Receptor (setting [7]) is listed as 80%.
In the case of `CCCN(CCc1cccs1)[C@H]1CCc2c(O)cccc2C1` [(−)-N-0437], the figures for the “Intrinsic Activity” value (in [1]; at hO44 Receptor (setting [7])) were 94% and 88%, respectively. The “Ratio Low/High” value was determined as 145 in data set [1] and 106 at hO44 Receptor. Further, the Ki came out at 0.08 ± 0.04 nM in data set [1] and 1.1 ± 0.7 nM at hO44 Receptor (read-out: Ki (nM) ± S.D.).
For `CCCN1CCc2cccc3c2[C@H]1Cc1ccc(O)c(O)c1-3` [(−)-NPA], the “Intrinsic Activity” value was 100% in data set [1] and 57% at hO44 Receptor (setting [7]). The Ki on hO44 Receptor (read-out: Ki (nM) ± S.D.) worked out at 0.6 ± 0.2 nM.
For the compound `CN1CCc2cccc3c2[C@H]1Cc1ccc(O)c(O)c1-3` [Apomorphine, apomorphine], the “Effect on tardive dyskinesia” value with tardive dyskinesia is “paradoxically improves tardive dyskinesia, both significantly and substantially”.
On to `CN1C[C@H](CSc2ccccn2)C=C2c3cccc4[nH]cc(c34)C[C@H]21` [CF25-397], for which, in the data set with schizophrenia [6], the Antipsychotic is listed as 0. For the same compound, the “Effect on tardive dyskinesia” value in the data set with tardive dyskinesia was “modestly improved dyskinetic symptoms in TD”.
`CN1C[C@H](CN2CC(=O)NC(=O)C2)C=C2c3cccc4[nH]cc(c34)C[C@H]21` [FCE-23884]: at hD21 Receptor, the “Intrinsic Activity” value is given as 37.0%. The Ki amounted to 0.4 nM at hD21 Receptor (read-out: Ki (HiAg State), high affinity agonist state) and 2.17 nM at hD21 Receptor (read-out: Ki (LowAg State), low affinity agonist state).
Consider `O=C(CCCN1CCC(O)(c2ccc(Cl)cc2)CC1)c1ccc(F)cc1` [Haloperidol, haloperidol], for which the “Change in Total BPRS Score, mean” value is −1.0 in data set [5] (Day 3), −0.2 in data set [5] (Day 7), −0.1 in [5] (Day 11) and −1.1 in data set [5] (Day 14).
In the case of `CCCN1CCc2cccc3c2[C@H]1Cc1ccc(O)c(O)c1-3` [NPA, n-propylnorapomorphine], the “Efficacy tolerance observed after” value in the data set on schizophrenia [3] (antipsychotic efficacy tolerance) is 24 h.
`c1cnc(N2CCN(Cc3ccc4c(c3)OCO4)CC2)nc1` [Piribedil (S584), piribedil]: the Antipsychotic in the data set on schizophrenia [6] is on record as 0. The “Effect on tardive dyskinesia” value in the data set with tardive dyskinesia is “modestly improved dyskinetic symptoms in TD”.
